The target of assay [1] is Mu-type opioid receptor (Rattus norvegicus) (UniProt P33535). The assay can be described thus: Inhibition of MOPr desensitization in wistar rat LC neuron cells assessed as reduction in the DAMGO induced desensitization incubated for 15 mins in the presence of Y-27632. In kind it is functional, cell-based.
Assay [2] has the same target. The assay can be described thus: Inhibition of MOPr desensitization in wistar rat LC neuron cells assessed as reduction in the DAMGO induced desensitization incubated for 15 mins in the presence of GSK650394. The class given is functional, cell-based.

Activity calls are given as the source filed them. The calls are words filed in the database; no cut-off is given here.

Sequence of Mu-type opioid receptor (Rattus norvegicus) (P33535 whole entry): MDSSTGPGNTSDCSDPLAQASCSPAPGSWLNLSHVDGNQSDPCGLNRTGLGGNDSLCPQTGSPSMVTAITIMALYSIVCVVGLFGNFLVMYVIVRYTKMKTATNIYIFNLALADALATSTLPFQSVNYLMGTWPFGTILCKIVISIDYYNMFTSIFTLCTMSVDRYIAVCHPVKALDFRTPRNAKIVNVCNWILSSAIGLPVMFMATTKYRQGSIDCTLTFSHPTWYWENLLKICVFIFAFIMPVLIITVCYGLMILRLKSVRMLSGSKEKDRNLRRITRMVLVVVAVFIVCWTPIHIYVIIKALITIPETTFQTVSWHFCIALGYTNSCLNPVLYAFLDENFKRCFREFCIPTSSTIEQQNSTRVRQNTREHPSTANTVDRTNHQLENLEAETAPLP

For the compound `O=C(O)c1ccc(-c2c[nH]c3ncc(-c4ccccc4)cc23)cc1C1CCCC1`, in assay [1], the inhibition result is “inactive”. Take `C[C@@H](N)[C@H]1CC[C@H](C(=O)Nc2ccncc2)CC1`: the inhibition result in assay [2] was “inactive”.

The record behind these values is ChEMBL document CHEMBL5705902, “Role of G Protein-Coupled Receptor Kinases 2 and 3 in μ-Opioid Receptor Desensitization and Internalization” (Mol Pharmacol, 2015).
